The results in this text go back to US7005417B1, “Echinocandin derivatives, method for preparing same and use as antifungal agents” (Aventis Pharma S.A., priority 1999, dated 2006).

The experiment has as its system Glucan Synthase of Candida albicans. Description: Inhibition of the Glucan Synthase of Candida albicans. Type of experiment: biochemical. The conditions noted are these: Candida albicans membranes, 14C-UDP glucose, 25° C. for 1 hour. As to the method:
A—Inhibition of the Glucan Synthase of Candida albicans
Candida albicans membranes were purified according to the process described by Tang et al Antimicrob. Agents Chemother 35, 99–103, 1991. 22.5 μg of membrane proteins are incubated in a mixture of 2 Mm of 14C-UDP glucose (specific activity=0.34 mCi./mmol, 50 μg of α-amylase, 1 Mm of dithiotreitol (DTT), 1 Mm EDTA, 100 Mm NaF, 7 μM of GTP-γ-S, 1 M of sucrose and 50 Mm of Tris-HCL (pH 7.8) in a volume of 100 μl. The medium is incubated at 25° C. for 1 hour and the reaction is terminated by adding TCA at a final concentration of 5%. The reaction mixture is transferred onto a pre-humidified glass fibre filter. The filter is washed, dried and its radioactivity is counted.
Mulundocandine is used as a positive control.
Control of the vehicle is carried out with the same quantity of 1% DMSO.

As to “1-[4-[(2-aminoethyl)amino]-N2-[[4-[5-[4-pentyloxy)-phenyl]-3-isoxazolyl]-phenyl]-carbonyl]-L-ornithine]-4-(4-hydroxyphenyl)-L-threonine]-5-L-serine-echinocandine B [Example 1]”, the “Inhibition of the Glucan Synthase of Candida albicans” value is on record as “good activity”.
